{"source": "ChEMBL document CHEMBL3526039", "about": "“Electrophysiological characterization of the polyspecific organic cation transporter plasma membrane monoamine transporter” (Drug Metab Dispos, 2012)", "key": {"[1]": {"target": "T1, Equilibrative nucleoside transporter 4 (Homo sapiens, UniProt Q7RTT9)", "T1 sequence (Q7RTT9 whole entry)": "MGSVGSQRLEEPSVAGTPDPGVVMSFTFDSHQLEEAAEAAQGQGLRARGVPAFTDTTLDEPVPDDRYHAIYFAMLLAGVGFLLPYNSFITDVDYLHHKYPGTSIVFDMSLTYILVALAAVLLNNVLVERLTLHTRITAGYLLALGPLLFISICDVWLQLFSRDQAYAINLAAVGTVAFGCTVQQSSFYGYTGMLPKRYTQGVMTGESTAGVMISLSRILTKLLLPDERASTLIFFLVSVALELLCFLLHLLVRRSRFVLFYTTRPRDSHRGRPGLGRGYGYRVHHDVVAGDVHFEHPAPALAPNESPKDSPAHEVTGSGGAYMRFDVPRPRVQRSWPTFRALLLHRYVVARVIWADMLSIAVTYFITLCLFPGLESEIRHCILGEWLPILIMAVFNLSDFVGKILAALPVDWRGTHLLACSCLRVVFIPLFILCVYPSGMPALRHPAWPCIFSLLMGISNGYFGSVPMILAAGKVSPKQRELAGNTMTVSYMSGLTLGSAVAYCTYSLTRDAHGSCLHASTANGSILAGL", "experiment": "Induction of human PMAT activity expressed in Xenopus laevis oocytes assessed as induction of inward current at 2.5 mM in NaCl buffer at pH 7.5 by two-microelectrode voltage-clamp method", "format": "cell-based", "settings": "pH 7.5, 2500 µM"}, "[2]": {"target": "T1, Equilibrative nucleoside transporter 4", "experiment": "Induction of human PMAT activity expressed in Xenopus laevis oocytes assessed as induction of inward current at 2.5 mM in NaCl buffer at pH 6 by two-microelectrode voltage-clamp method", "format": "cell-based", "settings": "pH 6, 2500 µM"}, "[3]": {"target": "T2, PMAT (equilibrative nucleoside transporter 4) (Homo sapiens, UniProt Q7RTT9)", "T2 sequence (Q7RTT9 whole entry)": "T1 sequence (Q7RTT9 whole entry)", "experiment": "Increase of human PMAT-mediated drug uptake expressed in Xenopus laevis oocytes in NaCl buffer at pH 6 at 100 uM after 60 mins relative to control", "settings": "Xenopus laevis oocytes expressing human PMAT"}, "[4]": {"target": "T2, PMAT (equilibrative nucleoside transporter 4)", "experiment": "in vitro", "settings": "not told, pH 6"}, "[5]": {"target": "T2, PMAT (equilibrative nucleoside transporter 4)", "experiment": "in vitro", "settings": "not told, pH 6", "remark": "listed apart in the source"}}}
{"smiles": "NCCc1c[nH]cn1", "note": "[HISTAMINE]", "values": [{"measurement": "Activity", "setting": "[1]", "value": -30.5, "unit": "nanoampere"}, {"measurement": "Activity", "setting": "[2]", "value": -110, "unit": "nanoampere"}, {"measurement": "uptake ratio at 1 h, 100 µM", "setting": "[3]", "value": 2}, {"measurement": "Km", "setting": "[4]", "value": 10, "unit": "mM"}, {"measurement": "Km", "setting": "[5]", "value": 10, "unit": "mM"}]}
{"smiles": "CC[N+](CC)(CC)CC", "note": "[TETRYLAMMONIUM]", "values": [{"measurement": "Activity", "setting": "[1]", "value": -0.627, "unit": "nanoampere"}, {"measurement": "Activity", "setting": "[2]", "value": -11.7, "unit": "nanoampere"}]}
{"smiles": "CN(C)C(=N)N=C(N)N", "note": "[METFORMIN]", "values": [{"measurement": "Activity", "setting": "[1]", "value": -2.02, "unit": "nanoampere"}, {"measurement": "Activity", "setting": "[2]", "value": -38, "unit": "nanoampere"}]}
{"smiles": "NC12CC3CC(CC(C3)C1)C2", "note": "[AMANTADINE]", "values": [{"measurement": "Activity", "setting": "[1]", "value": -7.26, "unit": "nanoampere"}, {"measurement": "Activity", "setting": "[2]", "value": -21.2, "unit": "nanoampere"}]}
{"smiles": "CN1CC=C(c2ccccc2)CC1", "values": [{"measurement": "Activity", "setting": "[1]", "value": -5.67, "unit": "nanoampere"}, {"measurement": "Activity", "setting": "[2]", "value": -62.7, "unit": "nanoampere"}]}
{"smiles": "CN1CCC[C@H]1c1cccnc1", "note": "[NICOTINE]", "values": [{"measurement": "Activity", "setting": "[1]", "value": -6.3, "unit": "nanoampere"}, {"measurement": "Activity", "setting": "[2]", "value": -75.7, "unit": "nanoampere"}]}
